From US20110245242A1, “Heterocyclically Substituted Anilinopyrimides” (Bayer CropScience AG, priority 2008, published 2011) come the findings set out here.

Series [1] can be described thus: log P by HPLC on reversed-phase columns (C 18), method [a], acidic range pH 2.3. The series is classed as physicochemical. The note with it: for chromatographic logP: pH 2.3, log P (pH 2.3). Here is the method: The log P values were measured in accordance with EEC Directive 79/831 Annex V.A8 by HPLC (High Performance Liquid Chromatography) on reversed-phase columns (C 18) using the methods below: [a] The determination was carried out in the acidic range at pH 2.3 using the mobile phases 0.1% aqueous phosphoric acid and acetronitrile linear gradient from 10% acetonitrile to 95% acetronitrile.

A short description of series [2]: log P by LC-MS, method [b], acid range pH 2.7. Format: physicochemical. Conditions: pH 2.7. Here is the method: The log P values were measured in accordance with EEC Directive 79/831 Annex V.A8 by HPLC (High Performance Liquid Chromatography) on reversed-phase columns (C 18) using the methods below:
[b] The LC-MS determination in the acid range was carried out at pH 2.7 using the mobile phases 0.1% aqueous formic acid and acetonitrile (contains 0.1% formic acid)
linear gradient from 10% acetonitrile to 95% acetonitrile.

The compound `Clc1cnc(Nc2ccc(I)cc2)nc1NC1CCC1` [VII-12, 5-Chloro-N^4-cyclobutyl-N^2-(4-iodophenyl)pyrimidine-2,4-diamine] gave a chromatographic logP in series [1] of 3.49.

`CC1CCN(c2cccc(Nc3ncc(Cl)c(NC4CC4)n3)c2)C1=O` (stereo not drawn) [Example 26]: in series [1] (pH 2.3), the log p was 1.76[a].

`FC(F)(F)c1cc(Br)cc(Nc2ncc(Cl)c(NC3CC3)n2)c1` [VII-7, N^2-[3-Bromo-5-(trifluoromethyl)phenyl]-5-chloro-N^4-cyclopropylpyrimidine-2,4-diamine]: the chromatographic logP in series [1] was determined as 4.6.

`COCC(C)Nc1nc(Cl)ncc1C(F)(F)F` (stereo not drawn) [Example V-3, 2-Chloro-N-(3-methoxypropan-2-yl)-5-trifluoromethylpyrimidin-4-amine] came in with a chromatographic logP in series [1] of 2.75.

Consider `Clc1ncc(Cl)c(N2CCCC2)n1` [Example V-34, 2,5-Dichloro-4-(pyrrolidin-1-yl)pyrimidine], for which the chromatographic logP in series [1] was 2.78. The chromatographic logP values of the last two compounds are within 0.2 log units of each other.

Regarding `CC1CC1Nc1nc(Cl)ncc1Br` (stereo not drawn) [Example V-41, 5-Bromo-2-chloro-N-(2-methylcyclopropyl)pyrimidin-4-amine], in series [1], the chromatographic logP was found to be 2.68. This chromatographic logP and that of the compound before are within 0.2 log units of each other.

Take `CCC1CC1Nc1nc(Cl)ncc1Cl` (stereo not drawn) [Example V-43, 2,5-Dichloro-N-(2-ethylcyclopropyl)pyrimidin-4-amine]: the chromatographic logP in series [1] came out at 3.1.

Take `CCC1COC(=O)N1c1cccc(Nc2ncc(Br)c(NC3CC3)n2)c1` (stereo not drawn) [Example 32]: the log p in series [1] (pH 2.3) is 2.01[a].

In the case of `CC(C)CC1COC(=O)N1c1cccc(Nc2ncc(Br)c(NC3CC3)n2)c1` (stereo not drawn) [Example 48], in series [1] (pH 2.3), the log p was 2.69[a].

Compound `Clc1cnc(Nc2ccc(I)cc2)nc1NC1CC1` [5-Chloro-N^4-cyclopropyl-N^2-(4-iodophenyl)pyrimidine-2,4-diamine] had a chromatographic logP in series [1] of 2.73.

For the compound `C[C@@H]1COC(=O)N1c1cccc(Nc2ncc(Cl)c(NC3CC3)n2)c1` [Example 103], the log p in series [1] (pH 2.3) is 1.8[a].

Consider `COc1cc(N2CCCC2=O)cc([N+](=O)[O-])c1` [1-(3-Methoxy-5-nitrophenyl)pyrrolidin-2-one], for which the chromatographic logP in series [1] was determined as 1.99.

With `CC1CC(Nc2nc(Cl)ncc2Br)C1` (stereo not drawn) [Example V-6, 5-Bromo-2-chloro-N-(3-methylcyclobutyl)pyrimidin-4-amine], the chromatographic logP in series [1] came out at 3.47.

In series [1], `Fc1cnc(Cl)nc1NC1CCC1` [Example V-28, 5-Fluoro-2-chloro-N-cyclobutylpyrimidin-4-amine] displayed a chromatographic logP of 2.17.

In turn, `Clc1ncc(Cl)c(N2CCOCC2)n1` [Example V-33, 4-(2,5-Dichloropyrimidin-4-yl)morpholine] came in with a chromatographic logP in series [1] of 1.99.

In series [1], `CC1CCN(Cc2cccc([N+](=O)[O-])c2)C1=O` (stereo not drawn) [3-Methyl-1-(3-nitrobenzyl)pyrrolidin-2-one] returned a chromatographic logP of 1.82. The chromatographic logP values of the last two compounds are within 0.2 log units of each other.

In series [1], `O=C1CCCN1c1cc(Nc2ncc(C(F)(F)F)c(Cl)n2)ccc1F` [VI-2, 1-(5-{[4-Chloro-5-(trifluoromethyl)pyrimidin-2-yl]amino}-2-fluorophenyl)pyrrolidin-2-one] gave a chromatographic logP of 2.84.

As to `Brc1ccc(Nc2ncc(Br)c(NC3CC3)n2)cc1` [VII-11, 5-Bromo-N^2-(4-bromophenyl)-N^4-cyclopropylpyrimidine-2,4-diamine], the chromatographic logP in series [1] came out at 2.7. This chromatographic logP and that of the compound before are within 0.2 log units of each other.

In series [1], `Brc1ccc(Nc2ncc(Br)c(NCC3CC3)n2)cc1` [VII-9, 5-Bromo-N^2-(4-bromophenyl)-N^4-(cyclopropylmethyl)pyrimidine-2,4-diamine] displayed a chromatographic logP of 2.84. The chromatographic logP values of the last two compounds are within 0.2 log units of each other.

Regarding `CC(C)CC1COC(=O)N1c1cccc(Nc2ncc(Cl)c(NC3CC3)n2)c1` (stereo not drawn) [Example 47], the log p in series [1] (pH 2.3) was 2.54[a].

Consider `CC(C)C1COC(=O)N1c1cccc(Nc2ncc(Cl)c(NC3CCC3)n2)c1` (stereo not drawn) [Example 46], for which the log p in series [1] (pH 2.3) is 2.41[a].

As to `CC(C)CC1COC(=O)N1c1cccc(Nc2ncc(Br)c(NC3CCC3)n2)c1` (stereo not drawn) [Example 50], in series [1] (pH 2.3), the log p was 3.05[a].

Regarding `CCC1CC(C)C(=O)N1` (stereo not drawn) [5-Ethyl-3-methylpyrrolidin-2-one], in series [1] (pH 2.3), the “log P (pH 2.3)” value worked out at 0.96. This compound also returned a chromatographic logP in series [1] of 1.02.

For `CC1CN(c2cccc(N)c2)C(=O)O1` (stereo not drawn) [3-(3-Aminophenyl)-5-methyl-1,3-oxazolidin-2-one], in series [1], the chromatographic logP amounted to 0.33.

Take `CC1CCN(c2cccc(Nc3ncc(Cl)c(NC4CCC4)n3)c2)C1=O` (stereo not drawn) [Example 113]: the log p in series [2] is 2.01[b].

As to `O=C1CCCN1c1cccc(Nc2ncc(Cl)c(N3CCCC3)n2)c1` [Example 222], in series [2], the log p was 1.67[b].

For the compound `CC1COC(=O)N1c1cccc(Nc2ncc(Cl)c(NCC(F)F)n2)c1` (stereo not drawn) [Example 155], the log p in series [2] is 1.81[b].

For the compound `CC1CC(C)N(c2cccc(Nc3ncc(Cl)c(NC4CCC4)n3)c2)C1=O` (stereo not drawn) [Example 80], the log p in series [2] is 2.2[b].

As for `CC(C)C1COC(=O)N1c1cccc(Nc2ncc(Br)c(NCC3CC3)n2)c1` (stereo not drawn) [Example 128], the log p in series [2] is 2.28[b].

For `CC(C)Nc1nc(Nc2cccc(N3C(=O)CCC3C)c2)ncc1Cl` (stereo not drawn) [Example 144], the log p in series [2] was 1.66[b].

With `O=C1COCCN1c1cccc(Nc2ncc(Cl)c(NCC(F)F)n2)c1` [Example 159], in series [2], the log p was 1.46[b].

For the compound `O=C1OCCN1c1ccc(Nc2ncc(Cl)c(NCC(F)(F)F)n2)cc1` [Example 23], in series [2], the log p is 1.83[b].

As to `O=C1CCCN1c1cccc(Nc2ncc(C(F)(F)F)c(N3CCCCC3)n2)c1` [Example 320], in series [2], the log p was 3.29[b].

Take `C[C@@H]1COC(=O)N1c1cccc(Nc2ncc(Br)c(NC3CC3)n2)c1` [Example 104]: the log p in series [2] is 2.03[b].

`CCC1COC(=O)N1c1cccc(Nc2ncc(Cl)c(NC3CCC3)n2)c1` (stereo not drawn) [Example 35]: the log p in series [2] is 2.09[b].

In the case of `CC(C)Nc1nc(Nc2ccc(N3C(=O)OCC3C)cc2)ncc1Br` (stereo not drawn) [Example 150], in series [2], the log p was 1.68[b].

Take `CC(C)Nc1nc(Nc2cccc(N3C(=O)CC(C)C3=O)c2)ncc1Br` (stereo not drawn) [Example 153]: the log p in series [2] was 1.68[b].

As for `CC(C)Nc1nc(Nc2ccc(N3C(=O)OCC3C)cc2)ncc1Cl` (stereo not drawn) [Example 142], the log p in series [2] is 1.61[b].

Take `CC1CC(=O)N(c2cccc(Nc3ncc(Cl)c(NCC(F)F)n3)c2)C1=O` (stereo not drawn) [Example 161]: in series [2], the log p is 1.68[b].

As to `CC1(C)CC(=O)N(c2cccc(Nc3ncc(Cl)c(NCC(F)(F)F)n3)c2)C1=O` [Example 170], the log p in series [2] is 2.36[b].

Regarding `CC(C)[C@H]1COC(=O)N1c1cccc(Nc2ncc(Cl)c(NCC(F)(F)F)n2)c1` [Example 111], the log p in series [2] is 2.81[b].

On to `CC1(C)CC(=O)N(c2cccc(Nc3ncc(C(F)(F)F)c(NC4CCC4)n3)c2)C1=O` [Example 192], for which the log p in series [2] is 3.03[b].

`O=C1COCCN1c1cccc(Nc2ncc(Cl)c(NCC(F)(F)F)n2)c1` [Example 173]: in series [2], the log p is 1.73[b].

As to `CC(C)Nc1nc(Nc2cccc(N3C(=O)CC(C)C3=O)c2)ncc1Cl` (stereo not drawn) [Example 145], in series [2], the log p was 1.59[b].

For `CC1CC(=O)N(c2cccc(Nc3ncc(Br)c(NC4CCC4)n3)c2)C1` (stereo not drawn) [Example 98], in series [2], the log p was 2.16[b].

With `CCC1CCC(=O)N1c1cccc(Nc2ncc(C(F)(F)F)c(NC3CC3)n2)c1` (stereo not drawn) [Example 255], the log p in series [2] is 2.75[b].

On to `O=C1OCCN1c1cccc(Nc2ncc(Br)c(NC3CCC3)n2)c1` [Example 72], for which the log p in series [2] was 1.8[b].

In the case of `CC1CC(=O)N(c2cccc(Nc3ncc(Cl)c(N(C)C4CC4)n3)c2)C1=O` (stereo not drawn) [Example 182], the log p in series [2] is 2.21[b].

On to `CC(C)Nc1nc(Nc2cccc(N3CCOCC3=O)c2)ncc1Cl` [Example 143], for which the log p in series [2] is 1.41[b].

Regarding `Cc1ccc(Nc2ncc(Cl)c(NC3CCC3)n2)cc1N1CCOC1=O` [Example 105], in series [2], the log p was 1.6[b].

With `CC(C)Nc1nc(Nc2cccc(N3CCCCC3=O)c2)ncc1Cl` [Example 114], in series [2], the log p was 1.46[b].

Consider `COCC(C)Nc1nc(Nc2cccc(N3CCOC3=O)c2)ncc1Br` (stereo not drawn) [Example 69], for which the log p in series [2] was 1.61[b].

Regarding `CC1CCC(=O)N1c1cccc(Nc2ncc(Br)c(NCC(F)F)n2)c1` (stereo not drawn) [Example 167], in series [2], the log p was 1.91[b].

As for `CC1(C)CC(=O)N(c2cccc(Nc3ncc(Br)c(NCC4CC4)n3)c2)C1=O` [Example 132], the log p in series [2] is 2.02[b].

As to `CC1COC(=O)N1c1cccc(Nc2ncc(Cl)c(NCC3CC3)n2)c1` (stereo not drawn) [Example 116], the log p in series [2] is 1.64[b].

For `O=C1OCC(c2ccccc2)N1c1cccc(Nc2ncc(Br)c(NC3CC3)n2)c1` (stereo not drawn) [Example 91], in series [2], the log p was 2.3[b].

For `CC(C)[C@H]1COC(=O)N1c1cccc(Nc2ncc(Cl)c(NC3CCC3)n2)c1` [Example 100], the log p in series [2] is 2.38[b].

Consider `CC1CC(C)N(c2cccc(Nc3ncc(Cl)c(NCC(F)(F)F)n3)c2)C1=O` (stereo not drawn) [Example 171], for which, in series [2], the log p is 2.51[b].

For `O=C1CCCCN1c1cccc(Nc2ncc(Br)c(NCC(F)F)n2)c1` [Example 135], the log p in series [2] was 1.75[b].

`CC1(C)CN(c2cccc(Nc3ncc(Cl)c(NC4CC4)n3)c2)C1=O` [Example 53]: the log p in series [2] is 2.07[b].

`CC1COC(=O)N1c1ccc(Nc2ncc(Cl)c(NCC(F)F)n2)cc1` (stereo not drawn) [Example 158]: in series [2], the log p is 1.68[b].

Take `COCC(C)Nc1nc(Nc2cccc(N3C(=O)CC(C)C3=O)c2)ncc1Cl` (stereo not drawn) [Example 68]: the log p in series [2] is 1.59[b].

In the case of `CC1CC1Nc1nc(Nc2cccc(N3CCOC3=O)c2)ncc1Cl` (stereo not drawn) [Example 205], the log p in series [2] was 1.67[b].

As to `CC1CC(Nc2nc(Nc3cccc(N4C(=O)C(C)CC4C)c3)ncc2Br)C1` (stereo not drawn) [Example 291], in series [2], the log p was 2.66[b].

On to `CC(CF)Nc1nc(Nc2cccc(N3CCCC3=O)c2)ncc1C(F)(F)F` (stereo not drawn) [Example 298], for which the log p in series [2] is 2.48[b].

As usually defined, the chromatographic logP is a lipophilicity value derived from retention on a column. A higher chromatographic logP goes with a more lipophilic compound.
